Reference: PubChem BioAssay AID1745844 (Carcinogenic Potency Database (CPDB), 2022)
Calls of active or inactive are those of the source. How the calls were made is not given here.

Tested on: rodent lifetime carcinogenesis bioassay, tumor incidence TD50
Assay: carcinogenic potency in animals, long-term in vivo studies, CPDB compilation (AID 1745844)

CCO
carcinogen call (hamster, strain Syrian Golden, males, in drinking water, site: trachea, lesion: one or several types, types not named, dosed 29 weeks, study length 78 weeks): negative (inactive) | TD50 (mouse, strain A, males, in drinking water, site: liver, lesion: hepatocellular adenoma, dosed 72 weeks, study length 72 weeks): 127000 mg/kg/day | carcinogen call (mouse, strain BALB/c, males, in drinking water, site: forestomach, lesion: squamous-cell papilloma, dosed 69 weeks, study length 86 weeks): negative (inactive) | TD50 (mouse, strain Swiss, females, in drinking water, site: any site (literature study), lesion: several types, types named in the paper, dosed 69 weeks, study length 86 weeks): 21400 mg/kg/day (inactive) | TD50 (mouse, strain Swiss, females, in drinking water, site: forestomach, lesion: squamous-cell papilloma, dosed 69 weeks, study length 86 weeks): 10900 mg/kg/day (inactive) | carcinogen call (mouse, strain Swiss, males, in drinking water, site: lung, lesion: adenoma, dosed 69 weeks, study length 86 weeks): negative (inactive) | TD50 (rat, strain ACI, males, in drinking water, site: forestomach, lesion: papilloma, dosed 52 weeks, study length 52 weeks): 4980 mg/kg/day | carcinogen call (rat, strain Charles River CD (Sprague-Dawley), females, in drinking water, site: any site (literature study), lesion: one or several types, types not named, dosed 104 weeks, study length 104 weeks): negative (inactive) | carcinogen call (rat, strain Charles River CD (Sprague-Dawley), females, in drinking water, site: liver, lesion: neoplastic nodule, dosed 104 weeks, study length 104 weeks): negative (inactive) | carcinogen call (rat, strain Charles River CD (Sprague-Dawley), males, in drinking water, site: any site (literature study), lesion: one or several types, types not named, dosed 104 weeks, study length 104 weeks): negative (inactive) | carcinogen call (rat, strain Charles River CD (Sprague-Dawley), males, in drinking water, site: liver, lesion: hepatocellular carcinoma, dosed 104 weeks, study length 104 weeks): negative (inactive) | TD50 (rat, strain Charles River CD (Sprague-Dawley), males, in drinking water, site: liver, lesion: neoplastic nodule, dosed 104 weeks, study length 104 weeks): 84800 mg/kg/day (inactive) | carcinogen call (rat, strain F344/DuCrj, males, in drinking water, site: forestomach, lesion: one or several types, types not named, dosed 51 weeks, study length 52 weeks): negative (inactive) | carcinogen call (rat, strain F344/DuCrj, males, in drinking water, site: stomach, glandular, lesion: one or several types, types not named, dosed 51 weeks, study length 52 weeks): negative (inactive) | TD50 (rat, strain Slc-Wistar, males, in drinking water, site: liver, lesion: hepatocellular adenoma, dosed 120 weeks, study length 120 weeks): 56100 mg/kg/day (inactive) | TD50 (rat, strain Slc-Wistar, males, in drinking water, site: liver, lesion: hepatocellular carcinoma, dosed 120 weeks, study length 120 weeks): 93900 mg/kg/day (inactive) | TD50 (rat, strain Slc-Wistar, males, in drinking water, site: liver, lesion: several types, types named in the paper, dosed 120 weeks, study length 120 weeks): 33800 mg/kg/day (inactive) | carcinogen call (rat, strain Sprague-Dawley, both sexes, in drinking water, site: any site (literature study), lesion: malignant tumor, dosed 111 weeks, study length 111 weeks): negative (inactive) | TD50 (rat, strain Sprague-Dawley, females, in drinking water, site: any site (literature study), lesion: malignant tumor, dosed 104 weeks, study length 120 weeks): 61000 mg/kg/day | TD50 (rat, strain Sprague-Dawley, females, in drinking water, site: any site (literature study), lesion: several types, types named in the paper, dosed 104 weeks, study length 120 weeks): 5870 mg/kg/day | TD50 (rat, strain Sprague-Dawley, females, in drinking water, site: liver, lesion: hepatocellular adenoma, dosed 104 weeks, study length 120 weeks): 201000 mg/kg/day | TD50 (rat, strain Sprague-Dawley, females, in drinking water, site: mammary gland, lesion: benign tumor, dosed 104 weeks, study length 120 weeks): 6070 mg/kg/day | TD50 (rat, strain Sprague-Dawley, females, in drinking water, site: mammary gland, lesion: fibroadenoma, dosed 104 weeks, study length 120 weeks): 8790 mg/kg/day | TD50 (rat, strain Sprague-Dawley, females, in drinking water, site: mammary gland, lesion: several types, types named in the paper, dosed 104 weeks, study length 120 weeks): 4710 mg/kg/day | TD50 (rat, strain Sprague-Dawley, females, in drinking water, site: pancreas, lesion: adenoma, dosed 104 weeks, study length 120 weeks): 21900 mg/kg/day | TD50 (rat, strain Sprague-Dawley, females, in drinking water, site: pituitary gland, lesion: neoplasm, NOS, dosed 104 weeks, study length 120 weeks): 5480 mg/kg/day | TD50 (rat, strain Sprague-Dawley, males, in drinking water, site: adrenal gland, lesion: one or several types, types not named, dosed 130 weeks, study length 130 weeks): 13700 mg/kg/day | TD50 (rat, strain Sprague-Dawley, males, in drinking water, site: any site (literature study), lesion: malignant tumor, dosed 104 weeks, study length 120 weeks): 7180 mg/kg/day | TD50 (rat, strain Sprague-Dawley, males, in drinking water, site: any site (literature study), lesion: several types, types named in the paper, dosed 104 weeks, study length 120 weeks): 1210 mg/kg/day | TD50 (rat, strain Sprague-Dawley, males, in drinking water, site: any site (literature study), lesion: several types, types named in the paper, dosed 130 weeks, study length 130 weeks): 2130 mg/kg/day | TD50 (rat, strain Sprague-Dawley, males, in drinking water, site: liver, lesion: hepatocellular carcinoma, dosed 104 weeks, study length 120 weeks): 164000 mg/kg/day | TD50 (rat, strain Sprague-Dawley, males, in drinking water, site: liver, lesion: hepatocellular carcinoma, dosed 130 weeks, study length 130 weeks): 28400 mg/kg/day | TD50 (rat, strain Sprague-Dawley, males, in drinking water, site: liver, lesion: hyperplastic nodule, dosed 130 weeks, study length 130 weeks): 8260 mg/kg/day | TD50 (rat, strain Sprague-Dawley, males, in drinking water, site: pancreas, lesion: carcinoma, dosed 104 weeks, study length 120 weeks): 17500 mg/kg/day | TD50 (rat, strain Sprague-Dawley, males, in drinking water, site: pancreas, lesion: one or several types, types not named, dosed 130 weeks, study length 130 weeks): 13700 mg/kg/day | TD50 (rat, strain Sprague-Dawley, males, in drinking water, site: pancreas, lesion: several types, types named in the paper, dosed 104 weeks, study length 120 weeks): 33200 mg/kg/day | TD50 (rat, strain Sprague-Dawley, males, in drinking water, site: pituitary gland, lesion: one or several types, types not named, dosed 130 weeks, study length 130 weeks): 9110 mg/kg/day

Cc1cc(C)c(S(=O)(=O)O)cc1N=Nc1cc(S(=O)(=O)O)c2ccccc2c1O
TD50 (dog, strain Beagle, females, in feed, site: adrenal gland, lesion: medullary adenoma, dosed 365 weeks, study length 365 weeks): 316 mg/kg/day | TD50 (dog, strain Beagle, females, in feed, site: any site (literature study), lesion: several types, types named in the paper, dosed 365 weeks, study length 365 weeks): 670 mg/kg/day | TD50 (dog, strain Beagle, females, in feed, site: mammary gland, lesion: adenocarcinoma, dosed 365 weeks, study length 365 weeks): 316 mg/kg/day (inactive) | carcinogen call (mouse, strain C3HeB/Jax, both sexes, in feed, site: any site (literature study), lesion: several types, types named in the paper, dosed 104 weeks, study length 104 weeks): negative (inactive) | carcinogen call (mouse, strain C3HeB/Jax, both sexes, in feed, site: liver, lesion: hepatoma, dosed 104 weeks, study length 104 weeks): negative (inactive) | TD50 (mouse, strain C57BL/He, both sexes, in feed, site: any site (literature study), lesion: several types, types named in the paper, dosed 104 weeks, study length 104 weeks): 20300 mg/kg/day (inactive) | TD50 (mouse, strain C57BL/He, both sexes, in feed, site: liver, lesion: hepatoma, dosed 104 weeks, study length 104 weeks): 57100 mg/kg/day (inactive) | TD50 (rat, strain Non-inbred, both sexes, in feed, site: any site (literature study), lesion: several types, types named in the paper, dosed 143 weeks, study length 143 weeks): 12000 mg/kg/day | TD50 (rat, strain Non-inbred, both sexes, in feed, site: liver, lesion: hepatoma, dosed 143 weeks, study length 143 weeks): 49500 mg/kg/day | TD50 (rat, strain Osborne-Mendel, both sexes, in feed, site: all sites, lesion: fibrosarcoma, dosed 104 weeks, study length 104 weeks): 20300 mg/kg/day (inactive) | carcinogen call (rat, strain Osborne-Mendel, both sexes, in feed, site: any site (literature study), lesion: several types, types named in the paper, dosed 104 weeks, study length 104 weeks): negative (inactive) | TD50 (rat, strain Osborne-Mendel, both sexes, in feed, site: liver, lesion: adenoma, dosed 104 weeks, study length 104 weeks): 59800 mg/kg/day (inactive) | carcinogen call (rat, strain Sprague-Dawley, both sexes, in feed, site: any site (literature study), lesion: several types, types named in the paper, dosed 104 weeks, study length 104 weeks): negative (inactive) | TD50 (rat, strain Wistar, both sexes, in feed, site: abdomen, lesion: malignant lymphoma, dosed 91 weeks, study length 91 weeks): 6130 mg/kg/day
